“Also recorded” adds a separate entry of the source.
Assays:
[1] = cited from earlier work
[2] = tested on: oligodendrocyte precursors (ODPCs) from EB-derived cells; test: Generation of iODPCs from EB-derived cells treated with S18 and S1P or S1P analogs; assay type: cell-based, mouse; settings: for effect on the number of ODPCs / ODPCs [% of total cells]: S1P 1 μM, VPC24191 or SEW2871 300 nM, FTY720 300 nM; for increase of the number of oligodendrocyte precursors (ODPCs): in vitro, combination with S18; for ODPCs [% of total cells]: in combination with S18, n=4 independent experiments
Protocol: Pre-implantation blastocyst-derived ES cells (ES-J1, Rosa26, E14) were grown on γ-irradiated feeder fibroblasts, and neural differentiation was induced by serum deprivation of EBs as previously described. Attached EBs were dissociated and EB-derived cells (EBCs) plated on polyornithin/laminin-coated dishes. At this stage, cells were grown in DMEM/F12 supplemented with N2 and FGF-2 (EB medium). EBCs acquire all characteristics of genuine NPCs, including expression of nestin. Sox1, and FGFR1. In the presence of FGF-2, NPCs can be dissociated and propagated at >80% homogeneity.
(§1) This protocol was modified using S18 or S1P (or its analogs) for incubation of differentiating ES cells at the EB stage prior to and after dissociation. After incubation with 50-100 μM S18 and/or 0.1-2 μM S1P or S1P analogs for 48 h, EBCs were dissociated and then immediately re-plated, and further incubated with NP medium supplemented with 50-100 μM S18 and 0.1-2 μM S1P or S1P analogs. NPCs were either transplanted into brain or spinal cord or in vitro differentiated in differentiation medium.
For incubation with S18 and S1P (or S1P) analogs add: 50-100 μM S18; 0.1-2 μM S1P or S1P analogs (FTY720, SEW2871, VPC24191 or related compounds) to EB and NP medium. The incubation time can vary from 24-72 h.
(§2) In vitro, treatment with a combination of S18 and S1P or S1P analogs (FTY720, VPC24191, SEW2871) increases the number of oligodendrocyte precursors (ODPCs) by about 20-fold (Table 1). […] This observation was unexpected and novel, because it has not been shown before that combined treatment with S18 and S1P analogs can enrich for ODPCs.

EB-derived cells (EBCs) [3] = test: S18-induced apoptosis / elimination of EB-derived cell sub-populations and protection by S1P analogs; assay type: cell-based, mouse; settings: for protection of S18-sensitive NPCs (NPC2) from apoptosis: added to medium with S18
Protocol: FIG. 4 illustrates making sphingolipid-enhanced neural stem cells (SENSe). FIG. 4A illustrates that mouse ES cells were differentiated to the attached EB stage and immunocytochemistry performed using antibodies against Oct-4 and S1P1. NPC2 cells show Oct-4(−) and S1P1(+). […] Expression of S1P1 protects them from S18-induced apoptosis if S1P or its analogs are added to the medium. FIG. 4B provides that there are three sub-populations of EB-derived cells (EBCs): 1) Residual pluripotent (Oct-4(+)/PAR-4(+)/S1P1(−) cells. […] They are not protected by S1P1; 2) NPC1 cells are Oct-4(−)/PAR-4(−)/S1P1(+) and represent nestin-expressing neural progenitors. […] FIG. 4C illustrates that NPC2 cells are stained for A2B5 epitope, a marker for oligodendrocyte precursor cells.
as §1, §2

EB-derived cells (EBCs) [4] = settings: stage of forming NPCs; ref [5]; cited from earlier work
primitive ectoderm cells = settings: suspension EBs; ref [3]; cited from earlier work

| SMILES | effect on the number of ODPCs [2] | increase of the number of oligodendrocyte precursors (ODPCs) [2] | ODPCs [% of total cells] ([2]; VPC23019 2 μM) | further results |
| --- | --- | --- | --- | --- |
| CCCCCCCCCCCCC/C=C/[C@@H](O)[C@H](CO)NC(C)=O [C2 ceramide, N-acetyl sphingosine] | – | – | – | water solubility compared with physiological ceramide species (e.g. C16 ceramide) [1]: several-fold higher |
| CCCCCCCCc1ccc(CCC(N)(CO)CO)cc1 [FTY720, 2-amino-2-[2-(4-octylphenyl)ethyl]propane-1,3-diol] | elevate the number of ODPCs | about 20 fold | – | protection of S18-sensitive NPCs (NPC2) from apoptosis (EB-derived cells (EBCs) [3]): rescue S18-sensitive NPCs from apoptosis; also recorded: can be protected |
| FC(F)(F)c1cccc(-c2noc(-c3cc(-c4ccccc4)c(C(F)(F)F)s3)n2)c1 [SEW2871] | elevate the number of ODPCs | about 20 fold | 18 +/− 3% | – |
| CCCCCCCCc1cccc(NC(=O)[C@H](N)COP(=O)(O)O)c1 [VPC23019] | – | – | – | effect of S1P1 antagonist on the S1P and FTY720 effect ([2]; VPC23019 2 μM): inhibits the effect of S1P and FTY720 |
| CCCCCCCC/C=C\CCCCCCCC(=O)NC(CO)CO [S18, N-(2-hydroxy-1-(hydroxymethyl)ethyl)-oleoylamide] | – | – | – | S18-induced apoptosis in NPC1 (Oct-4(−)/PAR-4(−)/S1P1(+)) cells (EB-derived cells (EBCs) [3]): do not undergo S18-induced apoptosis; elimination of teratoma-forming residual pluripotent (Oct-4(+)/PAR-4(+)/S1P1(−)) cells (EB-derived cells (EBCs) [3]; ES cell graft / EB-derived cells): specifically eliminate teratoma-forming cells; also recorded: are eliminated by S18; elimination of NPC2 (Oct-4(−)/PAR-4(+)/S1P1(+)) cells (EB-derived cells (EBCs) [3]; without S1P or FTY720): is also eliminated by S18; also recorded: are eliminated by S18; elimination of Oct-4(+) cells from differentiating ES cells (EB-derived cells (EBCs) [4]): eliminates Oct-4(+) cells; primitive ectoderm formation after ceramide depletion (primitive ectoderm cells): restores primitive ectoderm formation |
| CCCCCCCCCCCCC/C=C/[C@@H](O)[C@@H](N)COP(=O)(O)O [S1P, sphingosine-1-phosphate] | elevate the number of ODPCs | about 20 fold | 12 +/− 3% | protection of S18-sensitive NPCs (NPC2) from apoptosis (EB-derived cells (EBCs) [3]): rescue S18-sensitive NPCs from apoptosis; also recorded: can be protected |
| CCCCCCCCc1ccc(NC[C@H](N)COP(=O)(O)O)cc1 [VPC24191] | elevate the number of ODPCs | about 20 fold | 28 +/− 5% | – |

From patent publication US7985586B2, “Oligodendrocyte precursor cell composition and methods of use” (Georgia Health Sciences University, priority 2008, dated 2011)
